Laboratory results: patent US20110112100A1, “Hepatitis C Virus Inhibitors” (priority 2009, published 2011)
Structures can show the parent of a compound that is named as a salt. Where two headings read alike, the source gives them in different places.

Tests used:
[1] = test system: 1a-H77 replicon cells; assay: HCV 1a replicon inhibitory activity (Renilla luciferase); type: cell-based, hepatitis C virus; settings: read-out: IC50 value (95% Confidence Intervals) pM Replicon 1A assay
Procedure: (§1) Test compounds were solubilised to 4 mM in 100% DMSO. Dilutions were made to the desired starting concentration in 100% DMSO and then 1 in 3 dilutions made, again in 100% DMSO. 0.5 μl of each sample was added to 384-well assay plates. White Lumitrac (Greiner) plates were used for the 1a and 1b replicon assays and black, clear bottomed (Greiner) plates were used for the WST-1 cytotoxity assay.
1a-H77 replicon cells (licensed from Apath LLC) were resuspended to a concentration of 1.4×10^5 cells/ml by addition of pre-warmed assay medium (Dulbecco's Modified Eagle's Medium (DMEM)+10% fetal calf serum (FCS)). 50 μl of this suspension was added to each well of a 384-well assay plate (Lumitrac, Greiner), already containing 0.5 μl of test compound.
All plates were covered with gas permeable seals and incubated at 37° C., 5% CO2 for 48 hours. After 48 hours, the assay plate was removed from the incubator and left to cool to room temperature for 15 to 30 mins. Medium was removed from the wells and 5 μl 1× lysis buffer (from Promega's Renilla Luciferase assay kit, E2820) was added to each well. The plate was incubated at room temperature for 15 mins then 15 μl 1×Assay Substrate (from the same kit) was added to each well. Luminescence was read immediately using an EnVision (Perkin Elmer) plate reader. The half maximal effective concentration (1050) values were calculated by constructing log concentration-response curves for each compound.

[2] = test system: 1b (con1) replicon cells; assay: HCV 1b replicon inhibitory activity (luciferase, Britelite Plus); type: cell-based, hepatitis C virus; settings: read-out: IC50 value (95% Confidence Intervals) pM Replicon 1B assay
Procedure: as §1
1b (con1) replicon cells (pFK1389lucubineo/NS3-3′/ET/9B, licensed from Ralf Bartenschlager, University of Heidelberg) were resuspended to a concentration of 1.4×10^5 cells/ml by addition of pre-warmed medium (DMEM+10% FCS). 50 μl of this suspension was added to each well of a 384-well assay plate (Lumitrac, Greiner) already containing 0.5 μl of test compound.
All plates were covered with gas permeable seals and incubated at 37° C., 5% CO2 for 48 hours. After 48 hours, the plate was removed from the incubator and left to cool to room temperature for 15-30 mins. 35 ul of reconstituted Lyophilised Britelite Plus Substrate (PerkinElmer, 6016767) to medium was added to each well. Luminescence was read after 1 min but before 15 mins on an EnVision (Perkin Elmer) plate reader. The half maximal effective concentration (1050) values were calculated by constructing log concentration-response curves for each compound.

[3] = geometric mean, 95% confidence intervals in parentheses, 48 hours, medium with 10% FCS

SMILES	IC50 ([1]; Hepatitis C virus, 48 h)	IC50 ([2]; Hepatitis C virus, 48 h)	IC50 [1, 3]	IC50 [2, 3]
COC(=O)N[C@H](C(=O)N1CCC[C@H]1c1nc(-c2ccc(-c3cnc4cc(-c5cnc([C@@H]6CCCN6C(=O)CNC(=O)c6cc(C)on6)[nH]5)ccc4n3)cc2)c[nH]1)C(C)C [Example 42, Methyl {(2S)-3-methyl-1-[(2S)-2-{4-[4-(6-{2-[(2S)-1-{N-[(5-methylisoxazol-3-yl)carbonyl]glycyl}pyrrolidin-2-yl]-1H-imidazol-5-yl}quinoxalin-2-yl)phenyl]-1H-imidazol-2-yl}pyrrolidin-1-yl]-1-oxobutan-2-yl}carbamate trifluoroacetic acid salt]	2870 pM	247 pM	–	–
COC(=O)N[C@H](C(=O)N1CCC[C@H]1c1nc(-c2ccc(-c3cnc4cc(-c5cnc([C@@H]6CCCN6C(=O)CNC(=O)c6ccc7[nH]cnc7c6)[nH]5)ccc4n3)cc2)c[nH]1)C(C)C [Example 43, Methyl {(2S)-1-[(2S)-2-(4-{4-[6-(2-{(2S)-1-[N-(1H-benzimidazol-5-ylcarbonyl)glycyl]pyrrolidin-2-yl}-1H-imidazol-5-yl)quinoxalin-2-yl]phenyl}-1H-imidazol-2-yl)pyrrolidin-1-yl]-3-methyl-1-oxobutan-2-yl}carbamate trifluoroacetic acid salt]	787 pM	388 pM	–	–
COC(=O)N[C@H](C(=O)N1CCC[C@H]1c1nc(-c2ccc(-c3cnc4cc(-c5cnc([C@@H]6CCCN6C(=O)CNC(=O)c6[nH]nc7ccccc67)[nH]5)ccc4n3)cc2)c[nH]1)C(C)C [Example 44, Methyl {(2S)-1-[(2S)-2-(4-{4-[6-(2-{(2S)-1-[N-(2H-indazol-3-ylcarbonyl)glycyl]pyrrolidin-2-yl}-1H-imidazol-5-yl)quinoxalin-2-yl]phenyl}-1H-imidazol-2-yl)pyrrolidin-1-yl]-3-methyl-1-oxobutan-2-yl} carbamate trifluoroacetic acid salt]	–	–	3510 pM	100 pM
COC(=O)N[C@H](C(=O)N1CCC[C@H]1c1nc(-c2ccc(-c3cnc4cc(-c5cnc([C@@H]6CCCN6C(=O)CNC(=O)CN6C(=O)CCc7ccccc76)[nH]5)ccc4n3)cc2)c[nH]1)C(C)C [Example 45, Methyl {(2S)-3-methyl-1-oxo-1-[(2S)-2-{4-[4-(6-[2-[(2S)-1-{N-[(2-oxo-3,4-dihydroquinolin-1(2H)-yl)acetyl]glycyl}pyrrolidin-2-yl]-1H-imidazol-5-yl}quinoxalin-2-yl)phenyl]-1H-imidazol-2-yl}pyrrolidin-1-yl]butan-2-yl}carbamate trifluoroacetic acid salt]	20000 pM	507 pM	–	–
COC(=O)N[C@H](C(=O)N1CCC[C@H]1c1nc(-c2ccc(-c3cnc4cc(-c5cnc([C@@H]6CCCN6C(=O)[C@@H](C)NC(C)=O)[nH]5)ccc4n3)cc2)c[nH]1)C(C)C [Example 46, Methyl {(2S)-1-[(2S)-2-{4-[4-(6-(2-[(2S)-1-(N-acetyl-D-alanyl)pyrrolidin-2-yl]-1H-imidazol-5-yl}quinoxalin-2-yl)phenyl]-1H-imidazol-2-yl}pyrrolidin-1-yl]-3-methyl-1-oxobutan-2-yl}carbamate trifluoroacetic acid salt]	803 pM	44.2 pM	–	–
COC(=O)N[C@@H](COCc1ccccc1)C(=O)N1CCC[C@H]1c1ncc(-c2ccc3nc(-c4ccc(-c5c[nH]c([C@@H]6CCCN6C(=O)[C@@H](NC(=O)OC)C(C)C)n5)cc4)cnc3c2)[nH]1 [Example 48, Methyl {(2S)-1-[(2S)-2-{4-[4-(6-{2-[(2S)-1-{(2S)-3-(benzyloxy)-2-[(methoxycarbonyl)amino]propanoyl}pyrro-lidin-2-yl]-1H-imidazol-5-yl}quinoxalin-2-yl)phenyl]-1H-imidazol-2-yl}pyrrolidin-1-yl]-3-methyl-1-oxobutan-2-yl}carbamate carbamate trifluoroacetic acid salt]	–	–	27.8 pM	6.84 pM
COC(=O)N[C@H](C(=O)N1CCC[C@H]1c1nc(-c2ccc(-c3cnc4cc(-c5cnc([C@@H]6CCCN6C(=O)C6(NC(=O)OC)CCC6)[nH]5)ccc4n3)cc2)c[nH]1)C(C)C [Example 50, Methyl {(2S)-1-[(2S)-2-{4-[4-(6-{2-[(2S)-1-({1-[(methoxycarbonyl)amino]cyclobutyl}carbonyl)pyrrolidin-2-yl]-1H-imidazol-5-yl}quinoxalin-2-yl)phenyl]-1H-imidazol-2-yl}pyrrolidin-1-yl]-3-methyl-1-oxobutan-2-yl}carbamate trifluoroacetic acid salt]	356 pM	77.2 pM	–	–
COC(=O)N[C@H](C(=O)N1CCC[C@H]1c1nc(-c2ccc(-c3cnc4cc(-c5cnc([C@@H]6CCCN6C(=O)C(C)(C)NC(=O)OC)[nH]5)ccc4n3)cc2)c[nH]1)C(C)C [Example 51, Methyl {(2S)-1-[(2S)-2-{4-[4-(6-{2-[(2S)-1-{2-[(methoxycarbonyl)amino]-2-methylpropanoyl}pyrrolidin-2-yl]-1H-imidazol-5-yl}quinoxalin-2-yl)phenyl]-1H-imidazol-2-yl}pyrrolidin-1-yl]-3-methyl-1-oxobutan-2-yl}carbamate trifluoroacetic acid salt]	1850 pM	144 pM	–	–
COC(=O)N[C@H](C(=O)N1CCC[C@H]1c1nc(-c2ccc(-c3cnc4cc(-c5cnc([C@@H]6CCCN6C(=O)[C@@H](C)NC(=O)OC)[nH]5)ccc4n3)cc2)c[nH]1)C(C)C [Example 53, Methyl {(2S)-1-[(2S)-2-(4-{4-[6-(2-{(2S)-1-[N-(methoxycarbonyl)-D-alanyl]pyrrolidin-2-yl}-1H-imidazol-5-yl)quinoxalin-2-yl]phenyl}-1H-imidazol-2-yl)pyrrolidin-1-yl]-3-methyl-1-oxobutan-2-yl} carbamate trifluoroacetic acid salt]	–	–	646 pM	21.1 pM
COC(=O)N[C@H](C(=O)N1CCC[C@H]1c1nc(-c2ccc(-c3cnc4cc(-c5cnc([C@@H]6CCCN6C(=O)[C@@H](CC(C)C)NC(=O)OC)[nH]5)ccc4n3)cc2)c[nH]1)C(C)C [Example 54, Methyl {(2R)-1-[(2S)-2-{5-[2-(4-{2-[(2S)-1-{(2S)-2-[(methoxycarbonyl)amino]-3-methylbutanoyl}pyrrolidin-2-yl]-1H-imidaozl-4-yl}phenyl)quinoxalin-6-yl]-1H-imidazol-2-yl}pyrrolidin-1-yl]-4-methyl-1-oxopentan-2-yl}carbamate trifluoroacetic acid salt]	–	–	61.2 pM	14.9 pM
CCC[C@H](NC(=O)OC)C(=O)N1CCC[C@H]1c1ncc(-c2ccc3nc(-c4ccc(-c5c[nH]c([C@@H]6CCCN6C(=O)[C@@H](NC(=O)OC)C(C)C)n5)cc4)cnc3c2)[nH]1 [Example 55, Methyl {(2S)-1-[(2S)-2-{5-[2-(4-{2-[(2S)-1-{(2S)-2-[(methoxycarbonyl)amino]-3-methylbutanoyl}pyrrolidin-2-yl]-1H-imidazol-4-yl}phenyl)quinoxalin-6-yl]-1H-imidazol-2-yl}pyrrolidin-1-yl]-1-oxopentan-2-yl}carbamate trifluoroacetic acid salt]	18.1 pM	8.85 pM	–	–
COC(=O)N[C@@H](C)C(=O)N1CCC[C@H]1c1ncc(-c2ccc3nc(-c4ccc(-c5c[nH]c([C@@H]6CCCN6C(=O)[C@@H](NC(=O)OC)C(C)C)n5)cc4)cnc3c2)[nH]1 [Example 57, Methyl {(2S)-1-[(2S)-2-(4-{4-[6-(2-{(2S)-1-[N-(methoxycarbonyl)-L-alanyl]pyrrolidin-2-yl}-1H-imidazol-5-yl)quinoxalin-2-yl]phenyl}-1H-imidazol-2-yl)pyrrolidin-1-yl]-3-methyl-1-oxobutan-2-yl} carbamate trifluoroacetic acid salt]	–	–	21.8 pM	21.9 pM
CC[C@@H](NC(=O)OC)C(=O)N1CCC[C@H]1c1ncc(-c2ccc3nc(-c4ccc(-c5c[nH]c([C@@H]6CCCN6C(=O)[C@@H](NC(=O)OC)C(C)C)n5)cc4)cnc3c2)[nH]1 [Example 59, Methyl {(2S)-1-[(2S)-2-{4-[4-(6-{2-[(2S)-1-{(2R)-2-[(methoxycarbonyl)amino]butanoyl}pyrrolidin-2-yl]-1H-imidazol-5-yl}quinoxalin-2-yl)phenyl]-1H-imidazol-2-yl}pyrrolidin-1-yl]-3-methyl-1-oxobutan-2-yl} carbamate trifluoroacetic acid salt]	–	–	2390 pM	97.5 pM
